Experimental data: ChEMBL document CHEMBL4808193, “[11]-Chaetoglobosins from Pseudeurotium bakeri Induce G2/M Cell Cycle Arrest and Apoptosis in Human Cancer Cells” (J Nat Prod, 2021)
Activity calls are given as the source filed them. The calls are words filed in the database; no cut-off is given here.

Assays:
MCF7 [1] = experiment: Induction of apoptosis in human MCF7 cells assessed as increase in Bax protein level at 5 to 10 uM incubated for 24 hrs by Western blot analysis; assay type: functional, cell-based; details: dose 5-10 µM
A-427 [2] = experiment: Cell cycle arrest in human A-427 cells assessed as accumulation at S phase at 5 uM measured after 24 hrs by PI staining based flow cytometry (reference value: 27.27%); assay type: functional
MCF7 [3] = experiment: Cytotoxicity against human MCF7 cells assessed as reduction in cell viability by MTT assay; assay type: functional, cell-based
HCT-116 = experiment: Cytotoxicity against human HCT-116 cells assessed as reduction in cell viability by MTT assay; assay type: functional, cell-based
A-427 [4] = experiment: Cell cycle arrest in human A-427 cells assessed as accumulation at G0/G1 phase at 3.75 uM measured after 24 hrs by PI staining based flow cytometry (reference value: 52.93%); assay type: functional
A-427 [5] = experiment: Induction of apoptosis in human A-427 cells assessed as early apoptotic cells at 3.75 uM measured after 24 hrs by Annexin V-FITC/propidium iodide staining based flow cytometric analysis (reference value: 4.98%); assay type: functional
A-427 [6] = experiment: Induction of apoptosis in human A-427 cells assessed as late apoptotic cells at 2.5 uM measured after 24 hrs by Annexin V-FITC/propidium iodide staining based flow cytometric analysis (reference value: 3.18%); assay type: functional
A-427 [7] = experiment: Cell cycle arrest in human A-427 cells assessed as accumulation at G2/M phase at 3.75 uM measured after 24 hrs by PI staining based flow cytometry (reference value: 19.81%); assay type: functional
MCF7 [8] = experiment: Cell cycle arrest in human MCF7 cells assessed as accumulation at G0/G1 phase at 5 uM measured after 24 hrs by PI staining based flow cytometry (reference value: 60.23%); assay type: functional
MCF7 [9] = experiment: Cell cycle arrest in human MCF7 cells assessed as accumulation at S phase at 10 uM measured after 24 hrs by PI staining based flow cytometry (reference value: 24.64%); assay type: functional
MCF7 [10] = experiment: Cell cycle arrest in human MCF7 cells assessed as accumulation at S phase at 7.5 uM measured after 24 hrs by PI staining based flow cytometry (reference value: 24.64%; assay type: functional
MCF7 [11] = experiment: Cell cycle arrest in human MCF7 cells assessed as accumulation at G0/G1 phase at 10 uM measured after 24 hrs by PI staining based flow cytometry (reference value: 60.23%); assay type: functional
MCF7 [12] = experiment: Cell cycle arrest in human MCF7 cells assessed as accumulation at G0/G1 phase at 7.5 uM measured after 24 hrs by PI staining based flow cytometry (reference value: 60.23%); assay type: functional
MCF7 [13] = experiment: Induction of apoptosis in human MCF7 cells assessed as increase in cytochrome c level at 5 to 10 uM incubated for 24 hrs by Western blot analysis; assay type: functional, cell-based; details: dose 5-10 µM
MCF7 [14] = experiment: Cell cycle arrest in human MCF7 cells assessed as accumulation at G2/M phase at 10 uM measured after 24 hrs by PI staining based flow cytometry (reference value: 15.13%); assay type: functional
A-427 [15] = experiment: Cell cycle arrest in human A-427 cells assessed as accumulation at S phase at 2.5 uM measured after 24 hrs by PI staining based flow cytometry (reference value: 27.27%); assay type: functional
MCF7 [16] = experiment: Induction of apoptosis in human MCF7 cells assessed as late apoptotic cells at 7.5 uM measured after 24 hrs by Annexin V-FITC/propidium iodide staining based flow cytometric analysis (reference value: 1.11%); assay type: functional
MCF7 [17] = experiment: Induction of apoptosis in human MCF7 cells assessed as early apoptotic cells at 10 uM measured after 24 hrs by Annexin V-FITC/propidium iodide staining based flow cytometric analysis (reference value: 4.82%); assay type: functional
A-427 [18] = experiment: Induction of apoptosis in human A-427 cells assessed as early apoptotic cells at 2.5 uM measured after 24 hrs by Annexin V-FITC/propidium iodide staining based flow cytometric analysis (reference value: 4.98%); assay type: functional
A-427 [19] = experiment: Cell cycle arrest in human A-427 cells assessed as accumulation at G0/G1 phase at 2.5 uM measured after 24 hrs by PI staining based flow cytometry (reference value: 52.93%); assay type: functional
L02 = experiment: Cytotoxicity against human L02 cells assessed as reduction in cell viability by MTT assay; assay type: cell-based
A-427 [20] = experiment: Cell cycle arrest in human A-427 cells assessed as accumulation at G0/G1 phase at 5 uM measured after 24 hrs by PI staining based flow cytometry (reference value: 52.93%); assay type: functional
A-427 [21] = experiment: Cell cycle arrest in human A-427 cells assessed as accumulation at S phase at 3.75 uM measured after 24 hrs by PI staining based flow cytometry (reference value: 27.27%); assay type: functional
A-427 [22] = experiment: Cytotoxicity against human A-427 cells assessed as reduction in cell viability by MTT assay; assay type: functional, cell-based
MCF7 [23] = experiment: Induction of apoptosis in human MCF7 cells assessed as early apoptotic cells at 7.5 uM measured after 24 hrs by Annexin V-FITC/propidium iodide staining based flow cytometric analysis (reference value: 4.82%); assay type: functional
HepG2 = experiment: Cytotoxicity against human HepG2 cells assessed as reduction in cell viability by MTT assay; assay type: functional, cell-based
HT-29 = experiment: Cytotoxicity against human HT-29 cells assessed as reduction in cell viability by MTT assay; assay type: functional, cell-based
A-427 [24] = experiment: Induction of apoptosis in human A-427 cells assessed as early apoptotic cells at 5 uM measured after 24 hrs by Annexin V-FITC/propidium iodide staining based flow cytometric analysis (reference value: 4.98%); assay type: functional
MCF7 [25] = experiment: Induction of apoptosis in human MCF7 cells assessed as increase in PARP level at 5 to 10 uM incubated for 24 hrs by Western blot analysis; assay type: functional, cell-based; details: dose 5-10 µM
MCF7 [26] = experiment: Induction of apoptosis in human MCF7 cells assessed as late apoptotic cells at 5 uM measured after 24 hrs by Annexin V-FITC/propidium iodide staining based flow cytometric analysis (reference value: 1.11%); assay type: functional
A-427 [27] = experiment: Cell cycle arrest in human A-427 cells assessed as accumulation at G2/M phase at 5 uM measured after 24 hrs by PI staining based flow cytometry (reference value: 19.81%); assay type: functional
MCF7 [28] = experiment: Induction of apoptosis in human MCF7 cells assessed as increase in cleaved caspase 3 level at 5 to 10 uM incubated for 24 hrs by Western blot analysis; assay type: functional, cell-based; details: dose 5-10 µM
MCF7 [29] = experiment: Induction of apoptosis in human MCF7 cells assessed as early apoptotic cells at 5 uM measured after 24 hrs by Annexin V-FITC/propidium iodide staining based flow cytometric analysis (reference value: 4.82%); assay type: functional
MCF7 [30] = experiment: Induction of apoptosis in human MCF7 cells assessed as late apoptotic cells at 10 uM measured after 24 hrs by Annexin V-FITC/propidium iodide staining based flow cytometric analysis (reference value: 1.11%); assay type: functional
A-427 [31] = experiment: Induction of apoptosis in human A-427 cells assessed as late apoptotic cells at 3.75 uM measured after 24 hrs by Annexin V-FITC/propidium iodide staining based flow cytometric analysis (reference value: 3.18%); assay type: functional
A-427 [32] = experiment: Cell cycle arrest in human A-427 cells assessed as accumulation at G2/M phase at 2.5 uM measured after 24 hrs by PI staining based flow cytometry (reference value: 19.81%); assay type: functional
MCF7 [33] = experiment: Cell cycle arrest in human MCF7 cells assessed as accumulation at G2/M phase at 7.5 uM measured after 24 hrs by PI staining based flow cytometry (reference value: 15.13%); assay type: functional
MCF7 [34] = experiment: Cell cycle arrest in human MCF7 cells assessed as accumulation at G2/M phase at 5 uM measured after 24 hrs by PI staining based flow cytometry (reference value: 15.13%); assay type: functional
MCF7 [35] = experiment: Induction of apoptosis in human MCF7 cells assessed as increase in cleaved PARP level at 5 to 10 uM incubated for 24 hrs by Western blot analysis; assay type: functional, cell-based; details: dose 5-10 µM
MCF7 [36] = experiment: Cell cycle arrest in human MCF7 cells assessed as accumulation at S phase at 5 uM measured after 24 hrs by PI staining based flow cytometry (reference value: 24.64%); assay type: functional
A549 = experiment: Cytotoxicity against human A549 cells assessed as reduction in cell viability by MTT assay; assay type: functional, cell-based
HeLa = experiment: Cytotoxicity against human HeLa cells assessed as reduction in cell viability by MTT assay; assay type: functional, cell-based
A-427 [37] = experiment: Induction of apoptosis in human A-427 cells assessed as late apoptotic cells at 5 uM measured after 24 hrs by Annexin V-FITC/propidium iodide staining based flow cytometric analysis (reference value: 3.18%); assay type: functional

Q: For `CC1=C[C@@H]2/C=C/C[C@H](C)CC/C=C\C(=O)[C@]23C(=O)N[C@@H](Cc2c[nH]c4ccccc24)[C@@H]3[C@@H]1C`, which Activity (MCF7 [1]) is on record?
A: Active

Q: And the Activity (A-427 [2])?
A: 17.84%

Q: What about the IC50 (MCF7 [3]) of the same compound?
A: 6.2 µM

Q: And the IC50 (HCT-116)?
A: 8 µM

Q: What about the Activity (A-427 [4]) of the same compound?
A: 13.13%

Q: What about the Activity (A-427 [5]) of the same compound?
A: 15.57%

Q: What about the Activity (A-427 [6]) of the same compound?
A: 3.07%

Q: And the Activity (A-427 [7])?
A: 67.84%

Q: What about the Activity (MCF7 [8]) of the same compound?
A: 44.64%

Q: And the Activity (MCF7 [9])?
A: 12.37%

Q: And the Activity (MCF7 [10])?
A: 18.43%

Q: What about the Activity (MCF7 [11]) of the same compound?
A: 28.08%

Q: And the Activity (MCF7 [12])?
A: 32.82%

Q: And the Activity (MCF7 [13])?
A: Active

Q: And the Activity (MCF7 [14])?
A: 59.55%

Q: And the Activity (A-427 [15])?
A: 21.83%

Q: What about the Activity (MCF7 [16]) of the same compound?
A: 6.76%

Q: And the Activity (MCF7 [17])?
A: 25.44%

Q: What about the Activity (A-427 [18]) of the same compound?
A: 11.53%

Q: What about the Activity (A-427 [19]) of the same compound?
A: 15.31%

Q: And the IC50 (L02)?
A: 44.1 µM

Q: And the Activity (A-427 [20])?
A: 11.04%

Q: What about the Activity (A-427 [21]) of the same compound?
A: 19.02%

Q: And the IC50 (A-427 [22])?
A: 4.7 µM

Q: And the Activity (MCF7 [23])?
A: 19.53%

Q: What about the IC50 (HepG2) of the same compound?
A: 9.1 µM

Q: What about the IC50 (HT-29) of the same compound?
A: 6.7 µM

Q: What about the Activity (A-427 [24]) of the same compound?
A: 20.14%

Q: And the Activity (MCF7 [25])?
A: Active

Q: What about the Activity (MCF7 [26]) of the same compound?
A: 4.68%

Q: And the Activity (A-427 [27])?
A: 71.12%

Q: And the Activity (MCF7 [28])?
A: Active

Q: And the Activity (MCF7 [29])?
A: 11.86%

Q: And the Activity (MCF7 [30])?
A: 7.12%

Q: And the Activity (A-427 [31])?
A: 24.36%

Q: And the Activity (A-427 [32])?
A: 62.86%

Q: What about the Activity (MCF7 [33]) of the same compound?
A: 48.75%

Q: And the Activity (MCF7 [34])?
A: 42.22%

Q: What about the Activity (MCF7 [35]) of the same compound?
A: Active

Q: And the Activity (MCF7 [36])?
A: 13.15%

Q: What about the IC50 (A549) of the same compound?
A: 8.2 µM

Q: What about the IC50 (HeLa) of the same compound?
A: 7.1 µM

Q: What about the Activity (A-427 [37]) of the same compound?
A: 22.56%
